{
  "source": "patent US20200071361A1",
  "about": "“ENGINEERED ANTIMICROBIAL AMPHIPHILIC PEPTIDES AND METHODS OF USE” (priority 2017, published 2020)",
  "format_in_all_cases": "cell-based",
  "key": {"[1]": {"system": "Acinetobacter baumannii ATCC 19606 (non-MDR)", "assay": "Broth microdilution MIC (Table 2)", "details": "ATCC19606, read-out: MIC", "procedure": "(§1) Each peptide was formulated in PBS buffer prior to testing. Peptides of SEQ ID NO:5 and SEQ ID NO:8 were brought up in 100% DMSO with 0.002% polysorbate-80 at 1.28 mg/mL (40× the highest final test concentration of 32 mcg/mL). Final test concentration of DMSO was 2.5% in the assay at the first dilution for those two compounds.\n(§2) Mueller Hinton II broth (MHB II; BD; Lot Nos. 6258541 and 7143896) was used for MIC testing of aerobic organisms. 0.002% polysorbate 80 (P80) was added to the test medium.\n(§3) MIC values were determined using a broth microdilution procedure described by CLSI (1, 3). Automated liquid handlers (Multidrop 384, Labsystems, Helsinki, Finland; Biomek 2000 and Biomek FX, Beckman Coulter, Fullerton Calif.) were used to conduct serial dilutions and liquid transfers.\n(§4) To prepare the drug mother plates, which would provide the serial peptide dilutions for the replicate daughter plates, the wells of columns 2-12 of standard 96-well microdilution plates (Costar 3795) were filled with 150 μl of the designated diluent for each row of peptide. The test articles and comparator compounds (300 μl at 40× the highest concentration to be tested) were dispensed into the appropriate wells in column 1. The Biomek 2000 was then used to make 2-fold serial dilutions in the mother plates from column 1 through column 11. The wells of Column 12 contained no drug and served as the organism growth control wells for the assay.\n(§5) The daughter plates were loaded with 185 μL per well of MHB II using the Multidrop 384. The daughter plates were completed on the Biomek FX instrument which transferred 5 uL of peptide solution from each well of a mother plate to the corresponding well of each daughter plate in a single step. A standardized inoculum of each test organism was prepared per CLSI methods. The inoculum for each organism was dispensed into sterile reservoirs divided by length (Beckman Coulter), and the Biomek 2000 was used to inoculate the plates. Daughter plates were placed on the Biomek 2000 work surface in reverse orientation so that inoculation took place from low to high drug concentration. The plates were then inoculated with 10 μL of the inoculum resulting in a final cell density of approximately 5×10^5 CFU/mL, per well.\n(§6) Plates were stacked 3-4 high, covered with a lid on the top plate, placed in plastic bags, and incubated at 35° C. for 16 to 20 hrs. Following incubation, the microplates were removed from the incubator and viewed from the bottom using a plate viewer. […] The MIC was read and recorded as the lowest concentration of peptide that inhibited visible growth of the organism."}, "[2]": {"system": "Escherichia coli ATCC BAA-2471 (NDM-1)", "assay": "Broth microdilution MIC (Table 2)", "details": "ATCCBAA2471", "procedure": "as §1, §2, §3, §4, §5, §6"}, "[3]": {"system": "Klebsiella pneumoniae ATCC BAA-1705 (KPC)", "assay": "Broth microdilution MIC (Table 2)", "details": "ATCCBAA1705", "procedure": "as §1, §2, §3, §4, §5, §6"}, "[4]": {"system": "Pseudomonas aeruginosa ATCC BAA-2109 (MDR)", "assay": "Broth microdilution MIC (Table 2)", "details": "ATCCBAA2109", "procedure": "as §1, §2, §3, §4, §5, §6"}, "[5]": {"system": "Staphylococcus aureus ATCC 29213 (MSSA; QC)", "assay": "Broth microdilution MIC (Table 2)", "details": "read-out: MIC", "procedure": "as §1, §2, §3, §4, §5, §6"}, "[6]": {"system": "Streptococcus agalactiae ATCC 13813", "assay": "Broth microdilution MIC (Table 2)", "details": "ATCC13813, read-out: MIC", "procedure": "as §1, §2, §3, §4, §5, §6"}, "[7]": {"system": "Acinetobacter spp. isolates (n = 104)", "assay": "Broth microdilution MIC, clinical isolate panel", "details": "Acinetobacter spp. (n = 104)", "procedure": "(§7) Comparator antibiotics were supplied by Micromyx, and stock solutions were prepared on the first day of testing using solvents recommended by CLSI (1). Stock solutions of all compounds were made at 40× the final testing concentration and stored at −80° C. prior to testing. Information regarding compound source, catalog and lot number, testing concentrations and drug diluent for the comparators and test agent are detailed below in Table 3.\n(§8) The test organisms evaluated in this study consisted of clinical isolates from the Micromyx Repository and reference isolates from the American Type Culture Collection (ATCC; Manassas, Va.). The clinical isolates were obtained from USA hospitals. Upon initial receipt at Micromyx, the organisms were sub-cultured onto an appropriate agar medium. Following incubation, colonies were harvested from these plates and cell suspensions prepared and frozen at −80° C. with a cryoprotectant. Prior to testing, the isolates were streaked from frozen vials onto Trypticase Soy Agar with 5% sheep blood (Becton Dickenson [BD]; Sparks, Md.; Lot Nos. 7173618, 7166759, 7208688, 72144895, 7228505 and Remel Lenexa, Kans. Lot No. 212574). Plates were incubated at 35° C. overnight.\n(§9) Mueller Hinton II broth (MHB II; BD; Lot Nos. 6258541 and 7143896) was used for MIC testing of aerobic organisms.\nas §3\nas §4, with “drug” for “peptide”, “drug.” for “peptide.”\nas §5, with “µL” for “uL”, “drug” for “peptide”, “methods (1).” for “methods.”, “concentration.” for “concentration. The plates were then inoculated with 10 μL of the inoculum resulting in a final cell density of approximately 5×10^5 CFU/mL, per well.”\nas §6, with “drug” for “peptide”\n(§10) Clinical breakpoints to determine percent resistance within a given organism group were obtained from CLSI (3), with the exception of colistin for K. pneumoniae, Enterobacter spp., and E. coli, which are only available from EUCAST."}, "[8]": {"system": "Escherichia coli isolates (n = 101)", "assay": "Broth microdilution MIC, clinical isolate panel", "details": "Escherichia coli (n = 101)", "procedure": "as §7, §8, §9, §3\nas §4, with “drug” for “peptide”, “drug.” for “peptide.”\nas §5, with “µL” for “uL”, “drug” for “peptide”, “methods (1).” for “methods.”, “concentration.” for “concentration. The plates were then inoculated with 10 μL of the inoculum resulting in a final cell density of approximately 5×10^5 CFU/mL, per well.”\nas §6, with “drug” for “peptide”\nas §10"}, "[9]": {"system": "Klebsiella pneumoniae isolates (n = 101)", "assay": "Broth microdilution MIC, clinical isolate panel", "details": "Klebsiella pneumoniae (n = 101)", "procedure": "as §7, §8, §9, §3\nas §4, with “drug” for “peptide”, “drug.” for “peptide.”\nas §5, with “µL” for “uL”, “drug” for “peptide”, “methods (1).” for “methods.”, “concentration.” for “concentration. The plates were then inoculated with 10 μL of the inoculum resulting in a final cell density of approximately 5×10^5 CFU/mL, per well.”\nas §6, with “drug” for “peptide”\nas §10"}, "[10]": {"system": "Pseudomonas aeruginosa isolates (n = 109)", "assay": "Broth microdilution MIC, clinical isolate panel", "details": "Pseudomonas aeruginosa", "procedure": "as §7, §8, §9, §3\nas §4, with “drug” for “peptide”, “drug.” for “peptide.”\nas §5, with “µL” for “uL”, “drug” for “peptide”, “methods (1).” for “methods.”, “concentration.” for “concentration. The plates were then inoculated with 10 μL of the inoculum resulting in a final cell density of approximately 5×10^5 CFU/mL, per well.”\nas §6, with “drug” for “peptide”\nas §10"}},
  "data": [
    {"smiles": "C[C@H]1COc2c(N3CCN(C)CC3)c(F)cc3c(=O)c(C(=O)O)cn1c23", "note": "[Levofloxacin]", "values": [
      {"measurement": "MIC", "setting": "[1]", "result": 0.25, "unit": "µg/mL"},
      {"measurement": "MIC", "setting": "[2]", "result": 64, "unit": "µg/mL"},
      {"measurement": "MIC", "setting": "[3]", "result": 64, "unit": "µg/mL"},
      {"measurement": "MIC", "setting": "[4]", "result": 1, "unit": "µg/mL"},
      {"measurement": "MIC", "setting": "[5]", "result": 0.25, "unit": "µg/mL"},
      {"measurement": "MIC", "setting": "[6]", "result": 0.5, "unit": "µg/mL"},
      {"measurement": "MIC50", "setting": "[7]", "result": 8, "unit": "µg/mL"},
      {"measurement": "% R (percent of isolates resistant, clinical breakpoints)", "setting": "[8]", "result": "~50", "unit": "%"},
      {"measurement": "MIC50", "setting": "[8]", "result": 4, "unit": "µg/mL"},
      {"measurement": "% R (percent of isolates resistant, clinical breakpoints)", "setting": "[9]", "result": "over 60%"},
      {"measurement": "MIC50", "setting": "[10]", "result": 1, "unit": "µg/mL"},
      {"measurement": "MIC", "setting": "[10]; read-out: Mode (MIC)", "result": 0.25, "unit": "µg/mL"}
    ]}
  ]
}
